Laboratory results as given in PMC3363220, “Specific PKG inhibitors: do they really exist?” (BMC Pharmacology, 2011).
Where a SMILES comes first, the peptide text is derived from it. [ ]: non-standard residue; d: D form.

Assays:
[1] = test system: PKG II; assay: inhibition of PKG II; type: biochemical; details: up to 1 µM (D)-DT2
Method: (§1) We tested the inhibitory effects of (D)-DT2 and DT3 on PKG and its effects on intact cells. […] It should be noted that the measured PKG concentration is about 7 µM in platelets and 0.1 – 0.5 µM in all other tested cells.

[2] = test system: platelets; assay: calcium mobilization in collagen-stimulated platelets; type: cell-based; details: preincubation of platelets with 10 nM (D)-DT2
Method: as §1

[3] = test system: platelets; assay: platelet function versus PKG activity; type: cell-based
Method: as §1

[4] = test system: PKA; assay: PKA activity in broken platelet cell experiments; type: biochemical; details: broken platelet cells; at these concentrations (starting at 5 µM, complete PKG inhibition at 20 µM)
Method: as §1

[5] = test system: platelets; assay: aggregation of collagen-stimulated platelets; type: cell-based; details: preincubation of platelets with 10 nM (D)-DT2
Method: as §1

[6] = test system: platelets; assay: thrombin-induced platelet aggregation; type: cell-based; details: preincubation of platelets with 10 nM (D)-DT2
Method: as §1

[7] = test system: platelets; assay: thrombin-induced calcium mobilization in platelets; type: cell-based; details: preincubation of platelets with 10 nM (D)-DT2
Method: as §1

[8] = test system: PKG; assay: PKG activity in broken platelet cell experiments; type: biochemical; details: broken platelet cells, measured PKG concentration about 7 µM in platelets
Method: as §1

[9] = test system: PKA; assay: inhibition of PKA; type: biochemical; details: up to 1 µM (D)-DT2
[10] = test system: PKG in intact cells; details: ref [1]; cited from earlier work
From the text: Cellular cGMP effects can be mediated by a number of effectors including cGMP-dependent protein kinases (PKGs), cGMP-stimulated phosphodiesterase (PDE2), cGMP-inhibited phosphodiesterase (PDE3), and cGMP-gated channels. Pharmacological inhibitors of PKG are often used to discriminate between these diverse cGMP effects. Currently used PKG inhibitors can be divided into three classes: cyclic nucleotide binding site inhibitors like Rp-phosphorothioate analogs, ATP binding site inhibitors like KT5823, and substrate binding site inhibitors like the recently described DT-oligopeptides. However, seve ...

| SMILES | inhibition of PKG II [1] | effect on calcium mobilization in collagen-stimulated platelets [2] | correlation of effects on platelet function with PKG activity [3] | inhibition of PKA activity [4] | effect on aggregation in collagen-stimulated platelets [5] | effect on thrombin-induced platelet aggregation [6] | effect on thrombin-induced calcium mobilization [7] | concentration giving complete inhibition of PKG activity ([8]; complete inhibition) [µM] | concentration at which PKG inhibition starts [8] [µM] | inhibition of PKA [9] | PKG inhibition in intact cells [10] |
| --- | --- | --- | --- | --- | --- | --- | --- | --- | --- | --- | --- |
| CC(C)C[C@@H](NC(=O)[C@H]1CCCN1C(=O)[C@H]1CCCN1C(=O)[C@@H](CCCNC(=N)N)NC(=O)[C@@H](CCCNC(=N)N)NC(=O)[C@@H](CCCNC(=N)N)NC(=O)[C@@H](CCC(N)=O)NC(=O)[C@@H](CCCNC(=N)N)NC(=O)[C@@H](CCCNC(=N)N)NC(=O)[C@@H](CCCCN)NC(=O)[C@@H](CCCCN)NC(=O)[C@@H](CCCNC(=N)N)NC(=O)CNC(=O)[C@H](N)Cc1ccc(O)cc1)C(=O)N[C@H](CCCNC(=N)N)C(=O)N[C@H](CCCCN)C(=O)N[C@H](CCCCN)C(=O)N[C@H](CCCCN)C(=O)N[C@H](CCCCN)C(=O)N[C@H](CCCCN)C(=O)N[C@H](Cc1c[nH]cn1)C(N)=O [(D)-DT2] (H-[dY]G[dR][dK][dK][dR][dR][dQ][dR][dR][dR][dP][dP][dL][dR][dK][dK][dK][dK][dK][dH]-NH2; N-terminus and C-terminus assumed) | did not inhibit | potentiated | did not correlate with PKG activity | observed inhibition of PKA activity | potentiated | strongly inhibited | strongly inhibited | 20 | 5 | did not inhibit |  |
| COC(=O)[C@@]1(OC)C[C@H]2O[C@]1(C)n1c3ccccc3c3c4c(c5c6ccccc6n2c5c31)C(=O)N(C)C4 [KT5823] |  |  |  |  |  |  |  |  |  |  | no PKG inhibition |
